Measured values: patent US11061034B2, “Blood biomarker for use in evaluation of effect of drug therapy on kidney cancer” (PUBLIC UNIVERSITY CORPORATION YOKOHAMA CITY UNIVERSITY, priority 2015, dated 2021)

Tested on: kidney cancer
Assay: Kidney cancer activity by FDG PET/CT during mTOR inhibitor therapy
Assay type: in vivo, human
Method: A change in blood PARK7 concentration was observed during treatment in four patients with kidney cancer who began to receive administration of mTOR inhibitor. The blood PARK7 concentration was measured as a concentration of plasma PARK7 with the commercially available ELISA kit in the same manner as in 1, described above, and the change in blood PARK7 level was evaluated by comparing values detected by a luminometer. The therapeutic effect of the mTOR inhibitor was clinically evaluated by FDG PET/CT. Kidney cancer progression was evaluated by FDG PET/CT, in parallel with the measurement of blood PARK7 concentration. FDG is an agent composed of glucose and a positron-emitting nuclide introduced thereto, and it has almost the same behavior in the body as glucose. […] The SUVmax values indicated below the respective images are semi-quantified values of FDG accumulation.

CO[C@H]1C[C@@H]2CC[C@@H](C)[C@@](O)(O2)C(=O)C(=O)N2CCCC[C@H]2C(=O)O[C@H]([C@H](C)C[C@@H]2CC[C@@H](OC(=O)C(C)(CO)CO)[C@H](OC)C2)CC(=O)[C@H](C)/C=C(\C)[C@@H](O)[C@@H](OC)C(=O)[C@H](C)C[C@H](C)/C=C/C=C/C=C/1C [Temsirolimus]
accumulation of FDG (PET/CT) (patient with kidney cancer, Case No. 4 (one case)): no change in accumulation of FDG
accumulation of FDG (PET/CT) (patients with kidney cancer, Case Nos. 1 to 3 (three cases)): decreased accumulation of FDG
